Assay results reported in the supplement of paper PMC10627819.

Tests used:
Settings in all cases: main component drawn
S. pneumoniae D39V [1] = experiment: fitness (endpoint OD595 vs no drug) (fraction); higher = more growth
Summary of the method: (§1)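 Background-subtracted growth curves were the basis for fitness, taken as the optical density at entry into stationary phase over the robust mean of no-drug control wells. A cap of 1 was applied. The curves came from OD595 readings every 30 min for 14 h at 37 °C, in 384-well plates seeded at OD595 0.01 with 30 µl, or 55 µl for S. pneumoniae.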

B. subtilis 168 [2] = experiment: as above
Summary of the method: as §1

S. pneumoniae D39V [3] = experiment: Bliss interaction score (quartile over a dose matrix) (fitness difference); higher = more antagonism (negative = synergy)
Summary of the method: (§2)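 Combination data were used to infer fitness under each single drug. Fitness is the OD595 at entry into stationary phase divided by the robust mean of the plate's no-drug wells, with a cap of 1. The Bliss score is the observed minus the expected product fitness, summarised by quartiles over technical, biological and donor/recipient replicates.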

B. subtilis 168 [4] = experiment: as above
Summary of the method: as §2

S. aureus DSM 20231 = experiment: as above
Summary of the method: as §2

S. aureus Newman = experiment: as above
Summary of the method: as §2
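Wherever Bliss interaction score (quartile over a dose matrix) is given: first quartile when negative (synergy) and third quartile when positive (antagonism).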

## CCCCCCCCCC(=O)N[C@@H](Cc1c[nH]c2ccccc12)C(=O)N[C@H](CC(N)=O)C(=O)N[C@@H](CC(=O)O)C(=O)N[C@@H]1C(=O)NCC(=O)N[C@@H](CCCN)C(=O)N[C@@H](CC(=O)O)C(=O)N[C@H](C)C(=O)N[C@@H](CC(=O)O)C(=O)NCC(=O)N[C@H](CO)C(=O)N[C@@H]([C@H](C)CC(=O)O)C(=O)N[C@@H](CC(=O)c2ccccc2N)C(=O)O[C@@H]1C [Daptomycin] + CCC(C)C1C(=O)NC(=C)C(=O)NC(C(=O)NC(CSCC(C(=O)N1)NC(=O)/C(=C/C)/NC(=O)C(C(C)CC)N)C(=O)NC2C(SCC(NC(=O)CNC(=O)C3CCCN3C2=O)C(=O)NC(CCCCN)C(=O)NC4C(SCC(NC(=O)CNC(=O)C(NC(=O)C(NC(=O)C(NC(=O)CNC4=O)C)CC(C)C)CCSC)C(=O)NC(CC(=O)N)C(=O)NC(CCSC)C(=O)NC(CCCCN)C(=O)NC5C(SCC6C(=O)NC(C(=O)NC(CSC(C(C(=O)N6)NC(=O)C(NC5=O)C)C)C(=O)NC(CO)C(=O)NC(C(C)CC)C(=O)NC(CC7=CN=CN7)C(=O)NC(C(C)C)C(=O)NC(=C)C(=O)NC(CCCCN)C(=O)O)CC8=CN=CN8)C)C)C)CC(C)C [Nisin]
S. pneumoniae D39V [1]; first compound 1 µg/mL, partner 0.4275 µg/mL
  fitness: 0.995
S. pneumoniae D39V [1]; first compound 1 µg/mL, partner 0.855 µg/mL
  fitness: 0.874
S. pneumoniae D39V [1]; first compound 1 µg/mL, partner 1.6 µg/mL
  fitness: 0.022
S. pneumoniae D39V [1]; first compound 1 µg/mL, partner 1.71 µg/mL
  fitness: 0.0748
S. pneumoniae D39V [1]; first compound 1 µg/mL, partner 3.2 µg/mL
  fitness: 0.0226
S. pneumoniae D39V [1]; first compound 1 µg/mL, partner 6.4 µg/mL
  fitness: 0.0257
S. pneumoniae D39V [1]; first compound 2 µg/mL, partner 0.4275 µg/mL
  fitness: 0.98
S. pneumoniae D39V [1]; first compound 2 µg/mL, partner 0.855 µg/mL
  fitness: 0.905
S. pneumoniae D39V [1]; first compound 2 µg/mL, partner 1.6 µg/mL
  fitness: 0.0316
S. pneumoniae D39V [1]; first compound 2 µg/mL, partner 1.71 µg/mL
  fitness: 0.077
S. pneumoniae D39V [1]; first compound 2 µg/mL, partner 3.2 µg/mL
  fitness: 0.0221
S. pneumoniae D39V [1]; first compound 2 µg/mL, partner 6.4 µg/mL
  fitness: 0.013
S. pneumoniae D39V [1]; first compound 4 µg/mL, partner 0.4275 µg/mL
  fitness: 0.95
S. pneumoniae D39V [1]; first compound 4 µg/mL, partner 0.855 µg/mL
  fitness: 0.796
S. pneumoniae D39V [1]; first compound 4 µg/mL, partner 1.6 µg/mL
  fitness: 0.0215
S. pneumoniae D39V [1]; first compound 4 µg/mL, partner 1.71 µg/mL
  fitness: 0.0872
S. pneumoniae D39V [1]; first compound 4 µg/mL, partner 3.2 µg/mL
  fitness: 0.0303
S. pneumoniae D39V [1]; first compound 4 µg/mL, partner 6.4 µg/mL
  fitness: 0.0068
B. subtilis 168 [2]; first compound 0.125 µg/mL, partner 0.5 µg/mL, one replicate
  fitness: 0.829
B. subtilis 168 [2]; first compound 0.125 µg/mL, partner 1 µg/mL, one replicate
  fitness: 0.873
B. subtilis 168 [2]; first compound 0.125 µg/mL, partner 1.25 µg/mL, one replicate
  fitness: 0.963
B. subtilis 168 [2]; first compound 0.125 µg/mL, partner 1.6 µg/mL, one replicate
  fitness: 0.788
B. subtilis 168 [2]; first compound 0.125 µg/mL, partner 2 µg/mL, one replicate
  fitness: 0.439
B. subtilis 168 [2]; first compound 0.125 µg/mL, partner 2.5 µg/mL, one replicate
  fitness: 0.234
B. subtilis 168 [2]; first compound 0.125 µg/mL, partner 3.2 µg/mL, one replicate
  fitness: 0.0337
B. subtilis 168 [2]; first compound 0.125 µg/mL, partner 4 µg/mL, one replicate
  fitness: 0.212
B. subtilis 168 [2]; first compound 0.125 µg/mL, partner 5 µg/mL, one replicate
  fitness: 0.077
B. subtilis 168 [2]; first compound 0.125 µg/mL, partner 6.4 µg/mL, one replicate
  fitness: 0.0443
B. subtilis 168 [2]; first compound 0.125 µg/mL, partner 8 µg/mL, one replicate
  fitness: 0.0734
B. subtilis 168 [2]; first compound 0.125 µg/mL, partner 16 µg/mL, one replicate
  fitness: 0.0313
B. subtilis 168 [2]; first compound 0.25 µg/mL, partner 0.5 µg/mL
  fitness: 0.863
B. subtilis 168 [2]; first compound 0.25 µg/mL, partner 1 µg/mL
  fitness: 0.788
B. subtilis 168 [2]; first compound 0.25 µg/mL, partner 1.25 µg/mL, one replicate
  fitness: 0.933
B. subtilis 168 [2]; first compound 0.25 µg/mL, partner 1.6 µg/mL, one replicate
  fitness: 0.654
B. subtilis 168 [2]; first compound 0.25 µg/mL, partner 2 µg/mL
  fitness: 0.58
B. subtilis 168 [2]; first compound 0.25 µg/mL, partner 2.5 µg/mL, one replicate
  fitness: 0.593
B. subtilis 168 [2]; first compound 0.25 µg/mL, partner 3.2 µg/mL, one replicate
  fitness: 0.0148
B. subtilis 168 [2]; first compound 0.25 µg/mL, partner 4 µg/mL, one replicate
  fitness: 0.0372
B. subtilis 168 [2]; first compound 0.25 µg/mL, partner 5 µg/mL, one replicate
  fitness: 0.0364
B. subtilis 168 [2]; first compound 0.25 µg/mL, partner 6.4 µg/mL, one replicate
  fitness: 0.039
B. subtilis 168 [2]; first compound 0.25 µg/mL, partner 8 µg/mL, one replicate
  fitness: 0.157
B. subtilis 168 [2]; first compound 0.25 µg/mL, partner 16 µg/mL, one replicate
  fitness: 0.1
B. subtilis 168 [2]; first compound 0.5 µg/mL, partner 0.5 µg/mL
  fitness: 0.828
B. subtilis 168 [2]; first compound 0.5 µg/mL, partner 1 µg/mL
  fitness: 0.794
B. subtilis 168 [2]; first compound 0.5 µg/mL, partner 1.25 µg/mL, one replicate
  fitness: ≥ 1
B. subtilis 168 [2]; first compound 0.5 µg/mL, partner 1.6 µg/mL, one replicate
  fitness: 0.797
B. subtilis 168 [2]; first compound 0.5 µg/mL, partner 2 µg/mL
  fitness: 0.595
B. subtilis 168 [2]; first compound 0.5 µg/mL, partner 2.5 µg/mL, one replicate
  fitness: 0.601
B. subtilis 168 [2]; first compound 0.5 µg/mL, partner 3.2 µg/mL, one replicate
  fitness: 0.0344
B. subtilis 168 [2]; first compound 0.5 µg/mL, partner 4 µg/mL, one replicate
  fitness: 0.0568
B. subtilis 168 [2]; first compound 0.5 µg/mL, partner 5 µg/mL, one replicate
  fitness: 0.0223
B. subtilis 168 [2]; first compound 0.5 µg/mL, partner 6.4 µg/mL, one replicate
  fitness: 0.026
B. subtilis 168 [2]; first compound 0.5 µg/mL, partner 8 µg/mL, one replicate
  fitness: 0.0959
B. subtilis 168 [2]; first compound 0.5 µg/mL, partner 16 µg/mL, one replicate
  fitness: 0.0497
B. subtilis 168 [2]; first compound 1 µg/mL, partner 0.5 µg/mL, one replicate
  fitness: 0.726
B. subtilis 168 [2]; first compound 1 µg/mL, partner 1 µg/mL, one replicate
  fitness: 0.676
B. subtilis 168 [2]; first compound 1 µg/mL, partner 2 µg/mL, one replicate
  fitness: 0.451
S. pneumoniae D39V [3]
  Bliss interaction score: -0.0492
B. subtilis 168 [4]
  Bliss interaction score: 0.0676
S. aureus DSM 20231
  Bliss interaction score: 0.209
S. aureus Newman
  Bliss interaction score: 0.0445
